≈ marks a conversion by molar mass, not a printed value. Each block holds one compound with its values, some of them ahead of it.
Tests used:
S. pneumoniae UC ® 9912 = test: In vitro minimum inhibitory concentration (MIC) by agar dilution, gram-positive bacteria (Table 1); assay type: cell-based; conditions: Streptococcus pneumoniae, UC9912
Source text: (§1) The oxazolidinone antibacterial agents of this invention have useful activity against a variety of microorganisms. The in vitro activity of compounds of this invention can be assessed by standard testing procedures such as the determination of minimum inhibitory concentration (MIC) by agar dilution as described in "Methods for Dilution Antimicrobial Susceptibility Tests for Bacteria That Grow Aerobically" (MFT) published January 1983 by the National Committee for Clinical Laboratory Standards, 771 East Lancaster Avenue, Villanova, Pa. 19084, USA. The activity of selected compounds of this invention against Staphylococcus aureus and Streptococcus pneumoniae are shown in Table 1.

S. Aureus UC ® 9213 = test: as above; assay type: cell-based; conditions: Staphylococcus aureus, UC9213
Source text: as §1

Compound: CC(=O)NC[C@H]1CN(c2ccc(-c3nnc(CCCN)s3)c(F)c2)C(=O)O1 [Example 57, (S)-N-[[3-[4-[5-(3-Aminopropyl)-1,3,4-thiadiazol-2-yl]-3-fluorophenyl]-2-oxo-5-oxazolidinyl]methyl]acetamide]
MIC (S. pneumoniae UC ® 9912): 0.5 µg/mL (≈ 1.27 µM)
MIC (S. Aureus UC ® 9213): 16 µg/mL (≈ 40.7 µM)

Compound: CC(=O)NC[C@H]1CN(c2ccc(-c3nnc(C(F)(F)F)s3)c(F)c2)C(=O)O1 [Example 15, (S)-N-[[3-[3-Fluoro-4-[5-(trifluoromethyl)-1,3,4-thiadiazol-2-yl]phenyl]-2-oxo-5-oxazolidinyl]methyl]acetamide]
MIC (S. pneumoniae UC ® 9912): 0.5 µg/mL (≈ 1.24 µM)
MIC (S. Aureus UC ® 9213): 2 µg/mL (≈ 4.95 µM)

Compound: CC(=O)NC[C@H]1CN(c2ccc(-c3ncon3)c(F)c2)C(=O)O1 [Example 36, (S)-N-[[3-[3-Fluoro-4-(1,2,4-oxadiazol-3-yl)phenyl]-2-oxo-5-oxazolidinyl]methyl]acetamide]
MIC (S. pneumoniae UC ® 9912): 1 µg/mL (≈ 3.12 µM)
MIC (S. Aureus UC ® 9213): 4 µg/mL (≈ 12.5 µM)

Compound: CC(=O)NC[C@H]1CN(c2ccc(-c3nnc(C(C)=O)s3)c(F)c2)C(=O)O1 [Example 59, (S)-N-[[3-[4-(5-Acetyl-1,3,4-thiadiazol-2-yl)-3-fluorophenyl]-2-oxo-5-oxazolidinyl]methyl]acetamide]
MIC (S. pneumoniae UC ® 9912): 0.5 µg/mL (≈ 1.32 µM)
MIC (S. Aureus UC ® 9213): 2 µg/mL (≈ 5.29 µM)

Compound: CC(=O)NC[C@H]1CN(c2ccc(-c3nsc(C(N)=O)n3)c(F)c2)C(=O)O1 [Example 33, (S)-3-[4-[5-[(Acetylamino)methyl]-2-oxo-3-oxazolidinyl]-2-fluorophenyl]-1,2,4-thiadiazole-5-carboxamide]
MIC (S. pneumoniae UC ® 9912): 2 µg/mL (≈ 5.27 µM)
MIC (S. Aureus UC ® 9213): 16 µg/mL (≈ 42.2 µM)

Compound: CC(=O)NCCc1nnc(-c2ccc(N3C[C@H](CNC(C)=O)OC3=O)cc2F)s1 [Example 45, (S)-N-[[3-[4-[5-[2-(Acetylamino)ethyl]-1,3,4-thiadiazol-2-yl]-3-fluorophenyl]-2-oxo-5-oxazolidinyl]methyl]acetamide]
MIC (S. pneumoniae UC ® 9912): 0.5 µg/mL (≈ 1.19 µM)
MIC (S. Aureus UC ® 9213): 16 µg/mL (≈ 38 µM)

Compound: CC(=O)NC[C@H]1CN(c2ccc(-c3noc(C(F)(F)F)n3)c(F)c2)C(=O)O1 [Example 39, (S)-N-[[3-[3-Fluoro-4-[5-(trifluoromethyl)-1,2,4-oxadiazol-3-yl]phenyl]-2-oxo-5-oxazolidinyl]methyl]acetamide]
MIC (S. pneumoniae UC ® 9912): 8 µg/mL (≈ 20.6 µM)
MIC (S. Aureus UC ® 9213): 16 µg/mL (≈ 41.2 µM)

Compound: CC(=O)NC[C@H]1CN(c2ccc(-c3nnc(CNC(=O)CO)s3)c(F)c2)C(=O)O1 [Example 67]
MIC (S. pneumoniae UC ® 9912): < 0.5 µg/mL
MIC (S. Aureus UC ® 9213): 16 µg/mL (≈ 37.8 µM)

Compound: CC(=O)NC[C@H]1CN(c2ccc(-c3nnc(CCCCl)s3)c(F)c2)C(=O)O1 [Example 60, (S)-N-[[3-[4-[5-(3-Chloropropyl)-1,3,4-thiadiazol-2-yl]-3-fluorophenyl]-2-oxo-5-oxazolidinyl]methyl]acetamide]
MIC (S. pneumoniae UC ® 9912): 0.5 µg/mL (≈ 1.21 µM)
MIC (S. Aureus UC ® 9213): 2 µg/mL (≈ 4.84 µM)

Compound: CC(=O)NC[C@H]1CN(c2ccc(-c3nnc(CNC(=O)COC(C)=O)s3)c(F)c2)C(=O)O1 [Example 66]
MIC (S. pneumoniae UC ® 9912): < 0.5 µg/mL
MIC (S. Aureus UC ® 9213): 16 µg/mL (≈ 34.4 µM)

Compound: CC(=O)NC[C@H]1CN(c2ccc(-c3noc(C(N)=O)n3)c(F)c2)C(=O)O1 [Example 37, (S)-3-[4-[5-[(Acetylamino)methyl]-2-oxo-3-oxazolidinyl]-2-fluorophenyl]-1,2,4-oxadiazole-5-carboxamide]
MIC (S. pneumoniae UC ® 9912): 1 µg/mL (≈ 2.75 µM)
MIC (S. Aureus UC ® 9213): > 16 µg/mL

Compound: CC(=O)NC[C@H]1CN(c2ccc(-c3nnc(S(C)(=O)=O)s3)c(F)c2)C(=O)O1 [Example 62, (S)-N-[[3-[3-Fluoro-4-[5-(methylsulfonyl)-1,3,4-thiadiazol-2-yl]phenyl]-2-oxo-5-oxazolidinyl]methyl]acetamide]
MIC (S. pneumoniae UC ® 9912): 0.5 µg/mL (≈ 1.21 µM)
MIC (S. Aureus UC ® 9213): 2 µg/mL (≈ 4.83 µM)

Compound: COCCc1nnc(-c2ccc(N3C[C@H](CNC(C)=O)OC3=O)cc2F)s1 [Example 73, (S)-N-[[3-[3-Fluoro-4-[5-(2-methoxyethyl)-1,3,4-thiadiazol-2-yl]phenyl]-2-oxo-5-oxazolidinyl]methyl]acetamide]
MIC (S. pneumoniae UC ® 9912): < 0.5 µg/mL
MIC (S. Aureus UC ® 9213): 2 µg/mL (≈ 5.07 µM)

Compound: CC(=O)NC[C@H]1CN(c2ccc(-c3nnc(CCC(C)O)s3)c(F)c2)C(=O)O1 (stereo partly drawn) [Example 17, (5S)-N-[[3-[3-Fluoro-4-[5-(3-hydroxybutyl)-1,3,4-thiadiazol-2-yl]phenyl]-2-oxo-5-oxazolidinyl]methyl]acetamide]
MIC (S. pneumoniae UC ® 9912): 0.25 µg/mL (≈ 0.612 µM)
MIC (S. Aureus UC ® 9213): 2 µg/mL (≈ 4.9 µM)

Compound: CC(=O)NC[C@H]1CN(c2ccc(-c3nnc(CCNS(C)(=O)=O)s3)c(F)c2)C(=O)O1 [Example 46, (S)-N-[[3-[3-Fluoro-4-[5-[2-[(methylsulfonyl)amino]ethyl]-1,3,4-thiadiazol-2-yl]phenyl]-2-oxo-5-oxazolidinyl]methyl]acetamide]
MIC (S. pneumoniae UC ® 9912): 0.5 µg/mL (≈ 1.09 µM)
MIC (S. Aureus UC ® 9213): 16 µg/mL (≈ 35 µM)

Compound: COCc1nnc(-c2ccc(N3C[C@H](CNC(C)=O)OC3=O)cc2F)s1 [Example 12, (S)-N-[[3-[3-Fluoro-4-[5-(methoxymethyl)-1,3,4-thiadiazol-2-yl]phenyl]-2-oxo-5-oxazolidinyl]methyl]acetamide]
MIC (S. pneumoniae UC ® 9912): 0.25 µg/mL (≈ 0.657 µM)
MIC (S. Aureus UC ® 9213): 2 µg/mL (≈ 5.26 µM)

Compound: CC(=O)NC[C@H]1CN(c2ccc(-c3ncno3)c(F)c2)C(=O)O1 [Example 40, (S)-N-[[3-[3-Fluoro-4-(1,2,4-oxadiazol-5-yl)phenyl]-2-oxo-5-oxazolidinyl]methyl]acetamide]
MIC (S. pneumoniae UC ® 9912): 0.5 µg/mL (≈ 1.56 µM)
MIC (S. Aureus UC ® 9213): 2 µg/mL (≈ 6.24 µM)

Compound: CC(=O)NC[C@H]1CN(c2ccc(-c3nnc(NC=O)s3)c(F)c2)C(=O)O1 [Example 41, (S)-N-[[3-[3-Fluoro-4-[5-(formylamino)-1,3,4-thiadiazol-2-yl]phenyl]-2-oxo-5-oxazolidinyl]methyl]acetamide]
MIC (S. pneumoniae UC ® 9912): 0.5 µg/mL (≈ 1.32 µM)
MIC (S. Aureus UC ® 9213): 4 µg/mL (≈ 10.5 µM)

Compound: CSCCc1nnc(-c2ccc(N3C[C@H](CNC(C)=O)OC3=O)cc2F)s1 [Example 23, (S)-N-[[3-[3-Fluoro-4-[5-[2-(methylthio)ethyl]-1,3,4-thiadiazol-2-yl]phenyl]-2-oxo-5-oxazolidinyl]methyl]acetamide]
MIC (S. pneumoniae UC ® 9912): 0.25 µg/mL (≈ 0.609 µM)
MIC (S. Aureus UC ® 9213): 1 µg/mL (≈ 2.44 µM)

Compound: C/C=C/c1nnc(-c2ccc(N3C[C@H](CNC(C)=O)OC3=O)cc2F)s1 [Example 43, (S)-N-[[3-[3-Fluoro-4-[5-(1-propenyl)-1,3,4-thiadiazol-2-yl]phenyl]-2-oxo-5-oxazolidinyl]methyl]acetamide]
MIC (S. pneumoniae UC ® 9912): 0.5 µg/mL (≈ 1.33 µM)
MIC (S. Aureus UC ® 9213): 2 µg/mL (≈ 5.31 µM)

Compound: CC(=O)NC[C@H]1CN(c2ccc(-c3ncns3)c(F)c2)C(=O)O1 [Example 34, (S)-N-[[3-[3-Fluoro-4-(1,2,4-thiadiazol-5-yl)phenyl]-2-oxo-5-oxazolidinyl]methyl]acetamide]
MIC (S. pneumoniae UC ® 9912): 0.25 µg/mL (≈ 0.743 µM)
MIC (S. Aureus UC ® 9213): 1 µg/mL (≈ 2.97 µM)

Compound: CSCc1nnc(-c2ccc(N3C[C@H](CNC(C)=O)OC3=O)cc2F)s1 [Example 21, (S)-N-[[3-[3-Fluoro-4-[5-[(methylthio)methyl]-1,3,4-thiadiazol-2-yl]phenyl]-2-oxo-5-oxazolidinyl]methyl]acetamide]
MIC (S. pneumoniae UC ® 9912): 0.25 µg/mL (≈ 0.631 µM)
MIC (S. Aureus UC ® 9213): 1 µg/mL (≈ 2.52 µM)

Continued, values first:

MIC (S. pneumoniae UC ® 9912): < 0.125 µg/mL
MIC (S. Aureus UC ® 9213): 8 µg/mL (≈ 19.6 µM)
Compound: CCOC(=O)c1nnc(-c2ccc(N3C[C@H](CNC(C)=O)OC3=O)cc2F)s1 [Example 27, (S)-Ethyl 5-[4-[5-[(acetylamino)methyl]-2-oxo-3-oxazolidinyl]-2-fluorophenyl]-1,3,4-thiadiazole-2-carboxylate]

MIC (S. pneumoniae UC ® 9912): 0.25 µg/mL (≈ 0.661 µM)
MIC (S. Aureus UC ® 9213): 1 µg/mL (≈ 2.64 µM)
Compound: CC(=O)NC[C@H]1CN(c2ccc(-c3nnc(C(C)C)s3)c(F)c2)C(=O)O1 [Example 48, (S)-N-[[3-[3-Fluoro-4-[5-(1-methylethyl)-1,3,4-thiadiazol-2-yl]phenyl]-2-oxo-5-oxazolidinyl]methyl]acetamide]

MIC (S. pneumoniae UC ® 9912): 0.25 µg/mL (≈ 0.661 µM)
MIC (S. Aureus UC ® 9213): 1 µg/mL (≈ 2.64 µM)
Compound: CCCc1nnc(-c2ccc(N3C[C@H](CNC(C)=O)OC3=O)cc2F)s1 [Example 5, (S)-N-[[3-[3-Fluoro-4-(5-propyl-1,3,4-thiadiazol-2-yl)phenyl]-2-oxo-5-oxazolidinyl]methyl]acetamide]

MIC (S. pneumoniae UC ® 9912): 0.25 µg/mL (≈ 0.592 µM)
MIC (S. Aureus UC ® 9213): 2 µg/mL (≈ 4.73 µM)
Compound: CCOC(=O)Cc1nnc(-c2ccc(N3C[C@H](CNC(C)=O)OC3=O)cc2F)s1 [Example 25, (S)-Ethyl 5-[4-[5-[(acetylamino)methyl]-2-oxo-3-oxazolidinyl]-2-fluorophenyl]-1,3,4-thiadiazole-2-acetate]

MIC (S. pneumoniae UC ® 9912): 0.25 µg/mL (≈ 0.712 µM)
MIC (S. Aureus UC ® 9213): 4 µg/mL (≈ 11.4 µM)
Compound: CC(=O)NC[C@H]1CN(c2ccc(-c3nnc(N)s3)c(F)c2)C(=O)O1 [Example 30, (S)-N-[[3-[4-(5-Amino-1,3,4-thiadiazol-2-yl)-3-fluorophenyl]-2-oxo-5-oxazolidinyl]methyl]acetamide]

MIC (S. pneumoniae UC ® 9912): 0.25 µg/mL (≈ 0.574 µM)
MIC (S. Aureus UC ® 9213): 8 µg/mL (≈ 18.4 µM)
Compound: CC(=O)NCCCc1nnc(-c2ccc(N3C[C@H](CNC(C)=O)OC3=O)cc2F)s1 [Example 58, (S)-N-[3-[5-[4-[5-[(Acetylamino)methyl]-2-oxo-3-oxazolidinyl]-2-fluorophenyl]-1,3,4-thiadiazol-2-yl]propyl]acetamide]

MIC (S. pneumoniae UC ® 9912): 0.25 µg/mL (≈ 0.614 µM)
MIC (S. Aureus UC ® 9213): 16 µg/mL (≈ 39.3 µM)
Compound: CC(=O)NCc1nnc(-c2ccc(N3C[C@H](CNC(C)=O)OC3=O)cc2F)s1 [Example 49, (S)-N-[[5-[4-[5-[(Acetylamino)methyl]-2-oxo-3-oxazolidinyl]-2-fluorophenyl]-1,3,4-thiadiazol-2-yl]methyl]acetamide]

MIC (S. pneumoniae UC ® 9912): 0.25 µg/mL (≈ 0.606 µM)
MIC (S. Aureus UC ® 9213): 8 µg/mL (≈ 19.4 µM)
Compound: CC(=O)NC[C@H]1CN(c2ccc(-c3nnc(C[S+](C)[O-])s3)c(F)c2)C(=O)O1 (stereo partly drawn) [Example 22, (S)-N-[[3-[3-Fluoro-4-[5-[(methylsulfinyl)methyl]-1,3,4-thiadiazol-2-yl]phenyl]-2-oxo-5-oxazolidinyl]methyl]acetamide]

MIC (S. pneumoniae UC ® 9912): 0.25 µg/mL (≈ 0.592 µM)
MIC (S. Aureus UC ® 9213): 2 µg/mL (≈ 4.73 µM)
Compound: COC(=O)CCc1nnc(-c2ccc(N3C[C@H](CNC(C)=O)OC3=O)cc2F)s1 [Example 18, (S)-Methyl 5-[4-[5-[(acetylamino)methyl]-2-oxo-3-oxazolidinyl]-2-fluorophenyl]-1,3,4-thiadiazole-2-propanoate]

MIC (S. pneumoniae UC ® 9912): < 0.125 µg/mL
MIC (S. Aureus UC ® 9213): 1 µg/mL (≈ 2.51 µM)
Compound: CC(=O)NC[C@H]1CN(c2ccc(-c3nnc(CCCl)s3)c(F)c2)C(=O)O1 [Example 42, (S)-N-[[3-[4-[5-(2-Chloroethyl)-1,3,4-thiadiazol-2-yl]-3-fluorophenyl]-2-oxo-5-oxazolidinyl]methyl]acetamide]
